According to patent EP2236157A1 (PharmaNeuroBoost N.V., priority 2009, dated 2010):

Assays:
other 5HT receptors = assay: receptor binding affinity (pKi)
D4 receptor = target: T1, D4 receptor (Homo sapiens, UniProt P21917); assay: receptor binding affinity (pKi); conditions: read-out: pKi value towards the D4 receptor (converted)
T1 sequence (P21917 1-419): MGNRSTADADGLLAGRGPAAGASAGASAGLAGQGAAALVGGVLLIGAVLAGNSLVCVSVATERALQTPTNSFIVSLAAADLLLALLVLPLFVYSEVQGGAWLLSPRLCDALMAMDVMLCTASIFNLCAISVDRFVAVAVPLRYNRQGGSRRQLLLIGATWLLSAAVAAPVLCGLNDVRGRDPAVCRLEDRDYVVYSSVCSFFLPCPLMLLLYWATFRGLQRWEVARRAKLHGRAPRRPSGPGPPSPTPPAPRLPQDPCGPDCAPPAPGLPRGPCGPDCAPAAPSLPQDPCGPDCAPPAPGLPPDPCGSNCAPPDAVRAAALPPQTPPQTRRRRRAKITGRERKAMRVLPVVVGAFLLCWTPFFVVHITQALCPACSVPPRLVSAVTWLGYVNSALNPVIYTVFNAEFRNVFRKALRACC

other dopamine receptors = assay: receptor binding affinity (pKi)
[1] = test system: adrenergic receptors α-1A, α-2A, α-2B, α-2C, β-1, β-2, and the histamine receptor H1; assay: receptor binding affinity (Table 1); conditions: β-1, β-2 and histamine receptor H1
[2] = test system: patients with major depression; assay: semi-naturalistic open label study of combo pipamperone-citalopram in major depression (Example 2); assay type: in vivo
Excerpt: This semi-naturalistic open label study investigated the efficacy and tolerability of the combo pipamperone - citalopram in the treatment of patients with major depression.
• Design: Semi-naturalistic i.e. inclusion of every 'natural' patient in an outpatient practice but without concomitant use of mood enhancing drugs, open label • Control: No • Phase: Phase IIa - preliminary Proof of Concept • Location: Belgium - Research Centre ANIMA, Alken • End Points : Assessment scale scores, Hamilton Depression Rating Scale 17 items, Reduction, Response, Remission • Medication: Exclusion of mood stabilisers, antipsychotics (typical and atypical) and other antidepressants
Patients have a major depressive disorder according to DSM-IV criteria, with or without a chronic course and a treatment refractory state towards another SSRI than citalopram. […]
Adverse events are assessed on: body as a whole, central and peripheral nervous system, gastrointestinal, musculoskeletal, psychiatric, respiratory, skin and appendages, vascular and urinary, taking into account discontinued treatment due to adverse events. Laboratory parameters, ECG, bodyweight and vital signs are not measured since this is a naturalistic study.

patients with OCD = assay: semi-naturalistic open label study of combo pipamperone-citalopram in obsessive-compulsive disorder (Example 4); assay type: in vivo; conditions: pipamperone 16-19 mg/day + citalopram 30-60 mg/day
Description: This semi-naturalistic open label study investigates the efficacy and tolerability of the combo pipamperone - citalopram in the treatment of patients with OCD.
Characteristics: patients have an obsessive-compulsive disorder according to DSM-IV criteria, with or without a chronic course and a treatment refractory state towards another SSRI than citalopram.
Treatment with the combo pipamperone-citalopram (n = 7). Treatment with fluvoxamine (controlled release) mean 271 mg/day (n = 253) is according to Hollander et al. (2003).
The intention-to-treat/last-observation-carried-forward analysis is evaluated relating to therapeutic efficacy according Y-BOCS total score, obsession and compulsion scores.

pKi value towards other 5HT receptors (other 5HT receptors): less than 8
Ki (D4 receptor): ≤ 10 nM
pKi value towards other dopamine receptors (other dopamine receptors): less than 8
affinity for other receptors [1]: low or absence of affinity
Structure (SMILES): NC(=O)C1(N2CCCCC2)CCN(CCCC(=O)c2ccc(F)cc2)CC1 [pipamperone, 1'-[3-(p-Fluorobenzoyl)propyl]-[1,4'-bipiperidine]-4'-carboxamide]
sedative effects ([2]; major depression study, pipamperone 16-19 mg/day): lacking
boosting effect on a SSRI (citalopram) ([2]; major depression, pipamperone 16-19 mg/day + citalopram 10-20 mg/day, PO, 8 weeks): apparent
sedative effects (patients with OCD): lacking
